What is called IC50 is the concentration at which inhibition is half-maximal.

These results are taken from patent publication US9980980B2, “Compounds, compositions and methods for protecting brain health in neurodegenerative disorders” (Amazentis SA, priority 2009, dated 2018).

Assay [1] has as its target T1, Aβ(25-35) (Homo sapiens, UniProt P05067).
T1 construct: Monomeric Aβ(25-35) purchased from Bachem Pharma; purchased Bachem Pharma
The assay is described as follows: Screening assay for inhibition of Aβ(25-35) aggregation (Thioflavin-T fluorescence). The conditions noted are these: molecule at purity above 90%; ThT fluorescence, 25° C., 0-120 minutes; read-out: IC50 for inhibiting aggregation of Aβ25-35. It counts as biochemical. On the procedure: Monomeric Aβ(25-35) purchased from Bachem Pharma, was dissolved in distilled sterile water at 4° C., then sonitcated for about 1 minute. The peptide stock solution was then aliquoted and stored at −20° C. All steps were carried out at 4° C. to prevent Aβ(25-35) polymerization.
Fractions of polyphenols were all standardized to 10 μg/mL, before being assessed and stored at −20° C. Measurement of inhibition was performed by following the kinetic of Aβ(25-35) polymerization in a reaction mixture containing 70 μL phosphate buffer, 10 μL Thioflavin-T (100 μM stock solution), 10 μL MeOH (10 mM final concentration) pH 7.2 and 10 μL of Aβ(25-35) (100 μM final concentration) adapting known in the art procedures. LeVine, H., 3rd (1993). “Thioflavine T interaction with synthetic Alzheimer's disease beta-amyloid peptides: detection of amyloid aggregation in solution.” Protein Sci. 2(3): 404-10. When Aβ(25-35) was added to the buffer solution, the solution was sonicated for an additional minute.
To study the inhibitory activity of the fractions, the extracts were diluted to the final concentration in MeOH and 10 μL was added to the mixture at 4° C. Fluorescence spectroscopy was recorded with the excitation at 450 nm and emission at 490 nm. The polymerization kinetics was monitored at 25° C. between 0 and 120 minutes. The IC50 was calculated by using a least-square fitting technique to match the experimental data with a sigmoidal curve. The IC50 was the effective concentration dose of the compound inhibiting the formation of Aβ fibrils to 50% of the control value.

The test system of assay [2] is PC12 cells. Put plainly: Inhibition of Aβ-oligomer induced neuronal cell death in PC12 cells (MTT). The format is cell-based, Rat. The conditions noted are these: pre-aggregated Aβ (25-35) 10 μM, 24 h; MTT cell viability. On the procedure:
The fractions that were able to inhibits oligomer formation were also tested for their ability to inhibit Aβ-oligomer induced neuronal cell death using […], a well known and accepted model of neuronal cell culture.
Beta Amyloid peptide (Aβ) 25-35 trifluoroacetate salt (ref H-1192, lot 2000718) was purchased from Bachem (Bubebdorf, Switzerland). Thiazolyl Blue Tetrazolium Bromide (MTT, ref. M2128) was purchased from Sigma-Aldrich (Saint-Quentin Fallvier, France). Albumin Bovine Fraction V (BSA, ref 160069) was purchased from MPBio (Irvine, USA).
Cells: Rat Pheochromocytoma cells (PC12) were maintained in DMEM (4.5 g/L glucose) supplemented with 10% Horse Serum (HS), 5% Fetal Bovine Serum (FCS) and 100 U/mL penicillin and 100 μg/mL Streptomycin at 37° C. under 5% CO2.
Preparation of Aβ (25-35): It has been reported that Aβ oligomers are more toxic to neurons than monomers. […]
Determination of Hydro-Alcoholic Pomegranate Extracts Ability to Protect PC12 Cells Against Aβ Insult: The ability of Pomegranate extracts to protect PC12 cells from Aβ (25-35) oligomer induced toxicity was determined by measuring reduction of MTT to MTT formazan, which reflects cell viability. […] The level of MTT reduction and thus cell viability was determined by a colorimetric assay measuring the optical density at 595 nm using a microplate reader (BioTek EL808).

As for `O=C1O[C@H]2[C@@H]3OC(=O)c4cc(O)c(O)c(O)c4-c4c(O)c(O)c5oc(=O)c6c(c(O)c(O)c7oc(=O)c4c5c76)-c4c(cc(O)c(O)c4O)C(=O)OC[C@H]3OC(O)[C@@H]2OC(=O)c2cc(O)c(O)c(O)c2-c2c1cc(O)c(O)c2O` (mixture of isomers) [Punicalagin], the IC50 in assay [1] worked out at 6 µM. Besides, the “protection of PC12 neuronal cells from the toxicity of Aβ (25-35) oligomers” value in assay [2] is given as “responsible for the observed activity”.
`O=C1OC[C@H]2OC(O)[C@H](O)[C@@H](O)[C@@H]2OC(=O)c2cc(O)c(O)c(O)c2-c2c(O)c(O)c3oc(=O)c4c(c(O)c(O)c5oc(=O)c2c3c54)-c2c1cc(O)c(O)c2O` (mixture of isomers) [Punicalin]: the IC50 in assay [1] came out at 10 µM.
Consider `O=C(O[C@@H]1O[C@@H]2COC(=O)c3cc(O)c(O)c(O)c3-c3c(cc(O)c(O)c3O)C(=O)O[C@H]([C@H]1O)[C@@H]2O)c1cc(O)c(O)c(O)c1` [Corilagin], for which, in assay [1], the IC50 stood at 65 µM.
With Tellimagrandin, the IC50 in assay [1] amounted to 6.8 µM.
For the compound `O=C1OC[C@H]2OC(O)[C@@H]3OC(=O)c4cc(O)c(O)c(O)c4-c4c(cc(O)c(O)c4O)C(=O)O[C@H]3[C@@H]2OC(=O)c2cc(O)c(O)c(O)c2-c2c1cc(O)c(O)c2O` (stereo partly drawn) [Pedunculagin], in assay [1], the IC50 was found to be 11 µM.
